Experimental data from paper PMC4178217, “Quinoline 3-sulfonamides inhibit lactate dehydrogenase A and reverse aerobic glycolysis in cancer cells” (Cancer & Metabolism, 2013).

Tested on: HepG2 cells
Conditions: HepG2 conditioned medium, 10 μM, 24 h
Procedure: Ten million Snu398 or HepG2 cells per flask were plated in R10 medium in T150 tissue culture flasks and allowed to attach overnight. The following morning, medium was replaced with medium containing either DMSO or 10 μM LDHA inhibitor, and cells were incubated for 24 h at 37°C. The conditioned medium was collected and cells were washed, lifted by trypsinization and pelleted. Both medium and cell samples were submitted for mass spectroscopy (MS) analysis of over 500 individual metabolites. All samples were prepared in replicates of five.

Structure (SMILES): COc1ncc(-c2ccc3c(Nc4cc(C(=O)O)cc(C5CCCC5)c4)c(S(=O)(=O)NC4CC4)cnc3c2)c(OC)n1 [Compound 2]
- fold change 1-oleoylglycerophosphocholine: 0.94
- fold change 1-palmitoleoylglycerophosphocholine*: 0.91
- fold change 1-palmitoylglycerophosphocholine: 0.94
- fold change 1-stearoylglycerophosphocholine: 0.95
- fold change 2'-O-methylguanosine: 0.70
- fold change 2-aminobutyrate: 0.91
- fold change 2-hydroxybutyrate (AHB): 0.89
- fold change 2-hydroxyglutarate: 0.93
- fold change 2-methylbutyroylcarnitine: 0.94
- fold change 2-methylbutyrylglycine: 0.81
- fold change 2-oleoylglycerophosphocholine*: 0.96
- fold change 2-palmitoylglycerophosphocholine*: 0.98
- fold change 2-stearoylglycerophosphocholine*: 1.16
- fold change 3-(4-hydroxyphenyl)lactate: 1.15
- fold change 3-dehydrocarnitine*: 1.04
- fold change 3-indoxyl sulfate: 0.96
- fold change 3-methyl-2-oxobutyrate: 0.99
- fold change 3-methyl-2-oxovalerate: 0.94
- fold change 4-acetamidobutanoate: 0.92
- fold change 4-guanidinobutanoate: 0.88
- fold change 4-methyl-2-oxopentanoate: 0.96
- fold change 5-oxoproline: 1.02
- fold change 6'-sialyllactose: 1.01
- fold change C-glycosyltryptophan*: 1.06
- fold change HEPES: 0.97
- fold change Isobar: 2-propylpentanoic acid, 2-ethylhexanoic acid: 1.01
- fold change N1-methyladenosine: 1.02
- fold change N1-methylguanosine: 0.87
- fold change N6-carbamoylthreonyladenosine: 1.10
- fold change N-acetylaspartate (NAA): 0.70
- fold change N-acetylneuraminate: 1.09
- fold change N-acetylornithine: 0.99
- fold change X - 02952: 8.06
- fold change X - 02973: 1.18
- fold change X - 03090: 0.99
- fold change X - 04015: 1.00
- fold change X - 04133: 1.08
- fold change X - 04135: 1.13
- fold change X - 04148: 0.80
- fold change X - 04252: 0.53
- fold change X - 04357: 1.09
- fold change X - 05907: 0.49
- fold change X - 06126: 0.78
- fold change X - 06911: 0.99
- fold change X - 08172: 0.15
- fold change X - 08889: 1.21
- fold change X - 08895: 1.11
- fold change X - 09008: 0.87
- fold change X - 09026: 0.58
- fold change X - 10475: 0.76
- fold change X - 10476: 0.43
- fold change X - 10634: 0.56
- fold change X - 10740: 1.18
- fold change X - 10869: 0.93
- fold change X - 11081: 1.03
- fold change X - 11315: 0.83
- fold change X - 11533: 1.04
- fold change X - 11593: 1.12
- fold change X - 11787: 1.01
- fold change X - 12013: 1.09
- fold change X - 12015: 0.97
- fold change X - 12117: 0.78
- fold change X - 12216: 0.72
- fold change X - 12339: 1.38
- fold change X - 12435: 0.91
- fold change X - 12602: 0.93
- fold change X - 12729: 1.15
- fold change X - 12749: 0.95
- fold change X - 12776: 0.86
- fold change X - 12786: 1.07
- fold change X - 12792: 0.77
- fold change X - 12799: 1.04
- fold change X - 12944: 0.83
- fold change X - 13100: 1.00
- fold change X - 13103: 0.95
- fold change X - 13104: 1.11
- fold change X - 13110: 1.00
- fold change X - 13115: 0.98
- fold change X - 13117: 1.01
- fold change X - 13166: 0.95
- fold change X - 13483: 0.84
- fold change X - 13491: 1.19
- fold change X - 13494: 0.82
- fold change X - 13496: 1.11
- fold change X - 13507: 1.00
- fold change X - 13553: 1.05
- fold change X - 13581: 1.00
- fold change X - 13857: 0.74
- fold change X - 14056: 0.96
- fold change X - 14574: 0.86
- fold change X - 14588: 0.93
- fold change X - 15558: 1.17
- fold change X - 15559: 1.15
- fold change X - 15562: 1.13
- fold change X - 15563: 1.13
- fold change X - 15678: 1.32
- fold change X - 15808: 1.14
- fold change X - 16103: 0.86
- fold change X - 16116: 1.18
- fold change X - 16200: 1.04
- fold change X - 16206: 0.95
- fold change X - 16439: 1.13
- fold change X - 16444: 1.07
- fold change X - 17112: 1.02
- fold change X - 17430: 1.13
- fold change acetylcarnitine: 0.95
- fold change acetylphosphate: 0.92
- fold change alanine: 0.99
- fold change alanylglutamine: 0.96
- fold change allantoin: 0.85
- fold change arabitol: 0.72
- fold change arachidonate (20:4n6): 1.07
- fold change arginine: 0.98
- fold change asparagine: 0.30
- fold change aspartate: 0.84
- fold change aspartylleucine: 1.01
- fold change beta-alanine: 1.41
- fold change beta-hydroxyisovalerate: 0.84
- fold change beta-hydroxypyruvate: 0.79
- fold change betaine: 0.97
- fold change biotin: 0.96
- fold change butyrylcarnitine: 0.90
- fold change caproate (6:0): 0.83
- fold change caprylate (8:0): 0.79
- fold change carnitine: 1.03
- fold change catechol sulfate: 1.01
- fold change choline: 1.06
- fold change citrate: 0.97
- fold change citrulline: 0.87
- fold change creatine: 1.02
- fold change creatinine: 0.94
- fold change cyclo(leu-ala): 0.49
- fold change cysteine: 0.78
- fold change cysteine sulfinic acid: 1.00
- fold change cysteine-glutathione disulfide: 1.28
- fold change deoxycarnitine: 0.98
- fold change dimethyl sulfoxide*: 1.04
- fold change dimethylarginine (SDMA + ADMA): 0.97
- fold change docosahexaenoate (DHA; 22:6n3): 0.92
- fold change docosapentaenoate (n3 DPA; 22:5n3): 1.17
- fold change erythritol: 0.92
- fold change erythronate*: 0.99
- fold change ethanolamine: 1.13
- fold change folate: 0.99
- fold change fructose: 1.06
- fold change fumarate: 0.80
- fold change gamma-glutamylisoleucine*: 1.02
- fold change gamma-glutamylleucine: 0.87
- fold change gamma-glutamylphenylalanine: 0.85
- fold change gamma-glutamylvaline: 0.73
- fold change glucose: 0.87
- fold change glutamate: 1.00
- fold change glutamine: 0.96
- fold change glycerate: 1.05
- fold change glycerol: 1.09
- fold change glycerol 3-phosphate (G3P): 1.47
- fold change glycerophosphorylcholine (GPC): 0.95
- fold change glycine: 0.87
- fold change glycochenodeoxycholate: 1.01
- fold change glycocholate: 0.96
- fold change glycylglycine: 0.55
- fold change glycylleucine: 0.85
- fold change glycyltyrosine: 1.01
- fold change glycylvaline: 1.06
- fold change heme*: 0.95
- fold change hexadecanedioate: 0.84
- fold change hippurate: 0.98
- fold change histidine: 1.02
- fold change homostachydrine*: 1.00
- fold change hydroquinone: 0.97
- fold change indolelactate: 1.03
- fold change isobutyrylcarnitine: 0.98
- fold change isoleucine: 1.02
- fold change isovalerate: 0.80
- fold change isovalerylcarnitine: 1.29
- fold change kynurenate: 1.06
- fold change kynurenine: 1.00
- fold change lactate: 0.89
- fold change leucine: 1.03
- fold change lysine: 0.70
- fold change lysylleucine: 1.12
- fold change malate: 1.02
- fold change mannitol: 0.57
- fold change methionine: 0.96
- fold change myo-inositol: 0.85
- fold change nicotinamide: 0.80
- fold change ornithine: 0.79
- fold change p-aminobenzoate (PABA): 0.99
- fold change p-cresol sulfate: 0.91
- fold change palmitoyl sphingomyelin: 0.92
- fold change pantothenate: 1.00
- fold change phenol red: 0.97
- fold change phenol sulfate: 0.93
- fold change phenylacetylglycine: 1.02
- fold change phenylalanine: 0.98
- fold change phosphate: 0.99
- fold change pipecolate: 0.97
- fold change pro-hydroxy-pro: 0.98
- fold change proline: 0.93
- fold change propionylcarnitine: 1.00
- fold change pseudouridine: 0.96
- fold change putrescine: 0.90
- fold change pyridoxate: 0.92
- fold change pyridoxine (Vitamin B6): 1.04
- fold change pyruvate: 1.37
- fold change ribitol: 0.75
- fold change riboflavin (Vitamin B2): 0.98
- fold change scyllo-inositol: 1.09
- fold change serine: 0.61
- fold change serotonin (5HT): 0.82
- fold change sorbitol: 0.53
- fold change succinate: 1.07
- fold change taurocholate: 1.00
- fold change taurodeoxycholate: 0.93
- fold change tetradecanedioate: 1.13
- fold change thiamin (Vitamin B1): 1.00
- fold change threitol: 0.99
- fold change threonine: 0.96
- fold change trans-4-hydroxyproline: 0.90
- fold change tryptophan: 1.03
- fold change tyrosine: 0.99
- fold change uracil: 0.88
- fold change urea: 0.83
- fold change uridine: 0.93
- fold change valerylcarnitine: 1.27
- fold change valine: 0.98
- fold change xylitol: 0.88
